Among the test systems are SF-268 CNS; UACC-62 melanoma; LXFL 529 NSCLC; DMS 273 small cell lung; DLD-1 colon; MDA-N; ACHN renal; HOP-18 NSCLC; BT-549 breast; SW-620 colon; M19-MEL melanoma; SK-MEL-28 melanoma; HCT-116 colon; SNB-78 CNS; HCC-2998 colon; XF 498 CNS; DMS 114 small cell lung.
Holding throughout (test): NCI-60 cell line screen, 48 h

Several values for one entry are separate records, joined by “and”; a condition that tells them apart may be missing. Equal entries are not always repeated.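 The compound was tested at five concentrations on cells cultured in 96-well plates, with a 48-hour exposure period. Here, GI50 denotes the concentration required for 50% inhibition of growth. TGI is the concentration that stops growth completely.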

Our source for the TGI and GI50 values is PubChem BioAssay (NCI).

As for `CC(Oc1ccc(Oc2cnc3ccc(Cl)cc3n2)cc1)C(=O)O` (stereo not given), the TGI with SF-268 CNS, in the experiment on UACC-62 melanoma, in the experiment on LXFL 529 NSCLC, in the experiment with DMS 273 small cell lung, in the experiment on DLD-1 colon and in the experiment on MDA-N was above 100 µM each time. Moreover, the TGI in the experiment with ACHN renal, in the experiment on HOP-18 NSCLC, in the experiment with BT-549 breast, in the experiment with SW-620 colon, in the experiment with M19-MEL melanoma and with SK-MEL-28 melanoma was above 100 µM each time. The TGI was above 100 µM in the experiment with HCT-116 colon; above 100 µM in the experiment with SNB-78 CNS; above 100 µM in the experiment with HCC-2998 colon; above 100000 nM in the experiment with XF 498 CNS; above 100 µM in the experiment on DMS 114 small cell lung.

Turning to `COc1cccc(-c2cc(=O)c3cc4c(cc3[nH]2)OCO4)c1`, the TGI in the experiment on SF-268 CNS is above 69.5 µM; in the experiment with UACC-62 melanoma it was above 100 µM; in the experiment on LXFL 529 NSCLC, 23.2 µM; with DLD-1 colon, above 100 µM; with ACHN renal, above 48.2 µM; in the experiment with HOP-18 NSCLC it was above 100 µM. Also, the TGI is above 100 µM in the experiment with SW-620 colon; above 100 µM in the experiment with M19-MEL melanoma; above 100 µM in the experiment with SK-MEL-28 melanoma; above 100 µM in the experiment on HCT-116 colon; above 100 µM in the experiment with SNB-78 CNS; 0.934 µM in the experiment on HCC-2998 colon. In addition, the figures for the TGI with XF 498 CNS and in the experiment on DMS 114 small cell lung were 2590 nM and above 100 µM, respectively.

Turning to `COc1cc(C(=O)N[C@H]2CCc3cc(OC)c(OC)c(OC)c3-c3ccc(SC)c(=O)cc32)cc(OC)c1OC`, the TGI was 25 µM and 49 µM in the experiment on SF-268 CNS; 25 µM and > 100 µM in the experiment on UACC-62 melanoma; above 100 µM with DMS 273 small cell lung; 25 µM and > 100 µM in the experiment with DLD-1 colon; 25 µM and > 100 µM with ACHN renal; 25 µM and > 100 µM with SW-620 colon. In addition, the TGI in the experiment with M19-MEL melanoma is 25 µM and > 100 µM; in the experiment with SK-MEL-28 melanoma, above 100 µM; with HCT-116 colon, 3.02 µM and 17 µM; with HCC-2998 colon, 0.159 µM; with DMS 114 small cell lung, 0.144 µM. For the same compound, the GI50 was 23.4 nM in the experiment on DLD-1 colon, 80.4 nM in the experiment on ACHN renal and 15.6 nM in the experiment with M19-MEL melanoma.

`COC(=O)c1c(CC(Cc2ccc3c(c2)CCCC3)C(=O)O)ccc2c1CCCC2` (stereo not given): the TGI is above 100 µM in the experiment with SF-268 CNS; 52.4 µM in the experiment on UACC-62 melanoma; above 100 µM in the experiment with MDA-N; above 100 µM in the experiment on ACHN renal; above 100 µM in the experiment with BT-549 breast; above 100 µM in the experiment with SW-620 colon. In addition, the TGI in the experiment with SK-MEL-28 melanoma is above 100 µM; with HCT-116 colon it was 33.1 µM; with HCC-2998 colon, 70.2 µM.

For the compound `Cc1nc2ccc(S(=O)(=O)NS(=O)(=O)c3ccc(-c4ccccc4)cc3)cc2c(=O)n1NS(=O)(=O)c1ccc(-c2ccccc2)cc1`, the TGI in the experiment on SF-268 CNS, with UACC-62 melanoma, in the experiment with MDA-N, in the experiment on ACHN renal, in the experiment on BT-549 breast and in the experiment with SW-620 colon was above 100 µM each time. Also, the TGI in the experiment on SK-MEL-28 melanoma, in the experiment on HCT-116 colon and in the experiment with HCC-2998 colon was above 100 µM throughout.

On to `Cc1ccc(-c2c(-c3ccccc3)[nH]c(C)c2C(=O)ONC(=O)c2ccccc2)cc1`, for which the TGI with SF-268 CNS is 7.31 µM; with UACC-62 melanoma, 22.2 µM; in the experiment with MDA-N it was 6.12 µM; in the experiment with ACHN renal it was 4.15 µM; in the experiment on BT-549 breast it was 14.1 µM; in the experiment with SW-620 colon, 41.8 µM. The TGI in the experiment with SK-MEL-28 melanoma was 27.1 µM; in the experiment on HCT-116 colon it was 7.27 µM; in the experiment on HCC-2998 colon, 28.9 µM.

With `C[C@H]1C2Cc3cc(O)ccc3[C@@]1(C)CCN2CCc1ccc(N)cc1`, the TGI was 52.6 µM with SF-268 CNS; above 100 µM in the experiment with UACC-62 melanoma; 38.4 µM in the experiment on MDA-N; above 100 µM in the experiment on ACHN renal; above 100 µM in the experiment on BT-549 breast; 36 µM in the experiment on SW-620 colon. The TGI was found to be 34.4 µM in the experiment with SK-MEL-28 melanoma, 31.2 µM with HCT-116 colon and 26.4 µM with HCC-2998 colon.

As to `Oc1[nH]c2ccccc2c1C1=Nc2ccccc2/C1=N\OCCOC1OCC(O)C(O)C1O` (stereo not given), the TGI with SF-268 CNS, in the experiment on UACC-62 melanoma, in the experiment with MDA-N, in the experiment on ACHN renal, in the experiment on BT-549 breast and in the experiment with SW-620 colon was above 100 µM each time. Further, the TGI with SK-MEL-28 melanoma, in the experiment on HCT-116 colon and in the experiment with HCC-2998 colon was above 100 µM throughout.

On to `CC12CCCCC1=C(F)C(F)(F)S2` (stereo not given), for which the TGI was above 100 µM in the experiment on SF-268 CNS; above 100 µM in the experiment on UACC-62 melanoma; above 46.4 µM with MDA-N; 51.6 µM in the experiment on ACHN renal; 43 µM in the experiment on BT-549 breast; above 73.7 µM with SW-620 colon. Further, the results for the TGI in the experiment on SK-MEL-28 melanoma, in the experiment on HCT-116 colon and in the experiment with HCC-2998 colon were 78.2 µM, 58.5 µM and above 86.5 µM, respectively.

Turning to `COc1ccc(-c2oc3cc(OC)c(OC)c(O)c3c(=O)c2OC)cc1`, the TGI in the experiment on SF-268 CNS was 98.4 µM; in the experiment with UACC-62 melanoma, 84.4 µM; in the experiment on MDA-N, above 100 µM; in the experiment with ACHN renal, above 100 µM; in the experiment on BT-549 breast, 42 µM; in the experiment with SW-620 colon, above 100 µM. In addition, the TGI in the experiment on SK-MEL-28 melanoma, in the experiment with HCT-116 colon and with HCC-2998 colon was above 100 µM each time.

For the compound `O=c1cc(-c2ccccc2)[nH]c2cc(F)cc(F)c12`, the TGI is above 100 µM in the experiment on SF-268 CNS; 63.9 µM in the experiment with UACC-62 melanoma; above 100 µM in the experiment with LXFL 529 NSCLC; above 100 µM in the experiment on DMS 273 small cell lung; above 100 µM in the experiment on DLD-1 colon; above 100 µM with ACHN renal. Further, the TGI in the experiment on HOP-18 NSCLC is above 100 µM; in the experiment on SW-620 colon it was above 100 µM; in the experiment on M19-MEL melanoma, above 100 µM; in the experiment on SK-MEL-28 melanoma, above 100 µM; in the experiment with HCT-116 colon, above 100 µM; in the experiment on DMS 114 small cell lung, 93.2 µM.

Regarding `Clc1ccc2c(NCCCCN3OC3c3ccccc3)ccnc2c1` (stereo not given), the TGI in the experiment on SF-268 CNS turned out to be 27.1 µM; with UACC-62 melanoma, 27.1 µM; in the experiment on MDA-N it was 16.7 µM; in the experiment on ACHN renal, 22.2 µM; in the experiment on BT-549 breast, 27 µM; in the experiment on SW-620 colon, 18.5 µM. Further, the results for the TGI in the experiment on SK-MEL-28 melanoma, in the experiment with HCT-116 colon and with HCC-2998 colon were 7.42 µM, 4.36 µM and 11.1 µM, respectively.

Consider `COc1c2c(nc3ccccc13)-c1cc(C(CC(=O)OC(C)(C)C)C(=O)OC(C)C)c(CO)c(=O)n1C2` (stereo not given), for which the TGI in the experiment with SF-268 CNS was above 100 µM; in the experiment on UACC-62 melanoma, 98.3 µM; in the experiment on MDA-N, above 100 µM; with ACHN renal, above 100 µM; with BT-549 breast, above 100 µM; with SW-620 colon, above 100 µM. The TGI in the experiment on SK-MEL-28 melanoma, with HCT-116 colon and in the experiment with HCC-2998 colon was above 100 µM each time.

As for `FC(F)(F)c1ccc2c(c1)nc1n2C(c2c(Cl)cccc2Cl)SC1` (stereo not given), the TGI was found to be 47.2 µM with SF-268 CNS; 34.1 µM in the experiment on UACC-62 melanoma; 36.8 µM in the experiment on MDA-N; 40.3 µM in the experiment with ACHN renal; 55.3 µM in the experiment with BT-549 breast; 71.3 µM in the experiment with SW-620 colon. Further, the TGI is 43.3 µM in the experiment with SK-MEL-28 melanoma, 29.5 µM in the experiment with HCT-116 colon and 40.1 µM in the experiment with HCC-2998 colon.

Turning to `O=C(Cn1cc(Br)c(=O)[nH]c1=O)c1ccc(-c2ccccc2)cc1`, the TGI in the experiment on SF-268 CNS is 15.8 µM; in the experiment on UACC-62 melanoma, above 100 µM; in the experiment with MDA-N, above 100 µM; in the experiment with ACHN renal, above 100 µM; in the experiment with BT-549 breast, above 23.8 µM; with SW-620 colon it was above 100 µM. Besides, the TGI with SK-MEL-28 melanoma was above 19.9 µM; in the experiment with HCT-116 colon, above 100 µM; with HCC-2998 colon, above 28.7 µM.

`CC(=O)C(C(=O)c1ccc(C)cc1)[C@H]1OC(C)(C)O[C@H]1[C@H]1COC(C)(C)O1` (stereo not given in full): the TGI is 28.5 µM in the experiment with SF-268 CNS; 12.5 µM with UACC-62 melanoma; 6.63 µM with MDA-N; 13.2 µM in the experiment on ACHN renal; above 50 µM with BT-549 breast; 10.8 µM in the experiment with SW-620 colon. Also, the values for the TGI with SK-MEL-28 melanoma, in the experiment with HCT-116 colon and in the experiment on HCC-2998 colon were 15.8 µM, 6.81 µM and 14.2 µM, respectively.
